Drawing on ChEMBL document CHEMBL1125959, “Synthesis and DNA binding properties of an amidine-linked and phenyl-containing analogue of distamycin A” (Bioorg Med Chem Lett, 1991), this text covers K app for 2 compounds.

Structures are written as SMILES.

The subject of assay [1] is Nucleic Acid. As to the kind of experiment: The apparent DNA binding constant to bind with calf thymus DNA was determined by ethidium displacement assay. It is filed as nucleic-acid assay. Conditions: Bos taurus.
The subject of assay [2] is Nucleic Acid. Nature of the assay: The apparent DNA binding constant to bind with T4 DNA was determined by ethidium displacement assay. Type of assay: nucleic-acid assay.

As to `Cn1cc(NC(=O)c2cc(NC(=O)c3cc(NC=O)cn3C)cn2C)cc1C(=O)NCCC(=N)N`, in the assay with Nucleic Acid [1], the K app is 770000 M⁻¹.
For the compound `CN(C)CC/N=C(\N)c1cccc(NC(=O)c2cccc(NC=O)c2)c1`, the K app turned out to be 65000 M⁻¹ with Nucleic Acid [1] and 120000 M⁻¹ in the assay on Nucleic Acid [2].
